Source: PMC12133982, “Predominant T-cell epitopes of SARS-CoV-2 restricted by multiple prevalent HLA-B and HLA-C allotypes in Northeast Asia” (Frontiers in Immunology, 2025)
Peptide text beside a SMILES is read from it.

Assays:
HLA-C0102 = HLA-C0102 (Homo sapiens, UniProt P10321, A176E/A330V/A35S/A97T/C350S/D114A/D33F/L171W/L180R/L218V/M285V/M309V/M331V/P208H/Q277E/Q291P/R121W/R243W/R30K/S123C/S140Y/S297R/T329A/T363A/V272M/V319A); test: Competitive peptide binding assay, CIR-C0102; conditions: for IC50: HMy2.CIR-C0102 cells, reference Cy5-[…], class from inhibition at 5 and 15 μM, flow cytometry MFI, read-out: Binding affinity with HLA-C0102; for inhibition at 5 µM / inhibition at 15 µM: read-out: Inhibition % of Cy5-reference peptide binding
Procedure: (§1) Then, competitive peptide binding assays were performed.

HLA-C0702 = HLA-C0702 (Homo sapiens, UniProt P10321); test: Competitive peptide binding assay, CIR-C0702
HLA-C0302 = HLA-C0302 (Homo sapiens, UniProt P10321, A176E/A330V/A97T/C25G/C350S/D114A/D33Y/E197K/L127V/L171W/L218V/M285V/M309V/M331V/P208H/Q277E/Q291P/R243W/R45H/S123Y/S297R/S48A/T118I/T187L/T329A/T363A/V319A); test: Competitive peptide binding assay, CIR-C0302; conditions: HMy2.CIR-C0302 cells, reference Cy5-[…], class from inhibition at 5 and 15 μM, flow cytometry MFI; read-out: Binding affinity with HLA-C0302
Procedure: as §1

HLA-C1402 = HLA-C1402 (Homo sapiens, UniProt P10321, A176E/A330V/A35S/A97T/C350S/D114A/D33S/L171W/L180R/L218V/M285V/M309V/M331V/P208H/Q277E/Q291P/R121W/R243W/S123F/S297R/S48A/T329A/T363A/V319A); test: Competitive peptide binding assay, CIR-C1402; conditions: HMy2.CIR-C1402 cells, reference Cy5-[…], class from inhibition at 5 and 15 μM, flow cytometry MFI; read-out: Binding affinity with HLA-C1402
Procedure: as §1

HLA-C0304 = HLA-C0304 (Homo sapiens, UniProt P10321, A176E/A330V/A97T/C25G/C350S/D114A/D33Y/E197K/L119I/L127V/L171W/L218V/M285V/M309V/M331V/P208H/Q277E/Q291P/R243W/R45H/S123Y/S140Y/S297R/S48A/T118I/T187L/T329A/T363A/V319A); test: Competitive peptide binding assay, CIR-C0304; conditions: HMy2.CIR-C0304 cells, reference Cy5-[…], class from inhibition at 5 and 15 μM, flow cytometry MFI; read-out: Binding affinity with HLA-C0304
Procedure: as §1

HLA-C0401 = HLA-C0401 (Homo sapiens, UniProt P10321, A176E/A330V/A35S/A73E/C25G/C350S/D138N/D33S/E299K/L171W/L180R/L218V/M285V/M309V/M331V/N104K/P208H/Q277E/Q291P/R243W/R38W/S101N/S123F/S140F/S297R/S48A/T329A/T363A/V319A/V327M); test: Competitive peptide binding assay, CIR-C0401; conditions: HMy2.CIR-C0401 cells, reference Cy5-[…], class from inhibition at 5 and 15 μM, flow cytometry MFI; read-out: Binding affinity with HLA-C0401
Procedure: as §1

HLA-C0801 = HLA-C0801 (Homo sapiens, UniProt P10321, A176T/A330V/A97T/C350S/D114A/D138N/D33Y/E201K/E299G/L171W/L218V/M285V/M309V/M331V/P208H/Q277E/Q291P/R59Q/S123Y/S140F/S297R/S48A/T329A/T363A/V319A/V328M); test: Competitive peptide binding assay, CIR-C0801; conditions: HMy2.CIR-C0801 cells, reference Cy5-[…], class from inhibition at 5 and 15 μM, flow cytometry MFI; read-out: Binding affinity with HLA-C0801
Procedure: as §1

HLA-C0602 = HLA-C0602 (Homo sapiens, UniProt P10321, A176E/A330V/C350S/L171W/L180W/L218V/M285V/M309V/M331V/N104K/P208H/Q277E/Q291P/R121W/S101N/S123Y/S297R/T329A/T363A/V319A/V328M); test: Competitive peptide binding assay, CIR-C0602
HLA-C0303 = HLA-C0303 (Homo sapiens, UniProt P10321, A176E/A330V/A97T/C25G/C350S/D114A/D33Y/E197K/G115R/L119I/L127V/L171W/L218V/M285V/M309V/M331V/P208H/Q277E/Q291P/R243W/R45H/S123Y/S140Y/S297R/S48A/T118I/T187L/T329A/T363A/V319A); test: Competitive peptide binding assay, CIR-C0303; conditions: HMy2.CIR-C0303 cells, reference Cy5-[…], class from inhibition at 5 and 15 μM, flow cytometry MFI; read-out: Binding affinity with HLA-C0303
Procedure: as §1

Structure (SMILES)	IC50 (HLA-C0102) [µM]	IC50 (HLA-C0702) [µM]	IC50 (HLA-C0302) [µM]	IC50 (HLA-C1402) [µM]	IC50 (HLA-C0304) [µM]	IC50 (HLA-C0401) [µM]	IC50 (HLA-C0801) [µM]	IC50 (HLA-C0602) [µM]	inhibition at 5 µM (HLA-C0102) [%]	IC50 (HLA-C0303) [µM]	inhibition at 15 µM (HLA-C0102) [%]
CC(C)C[C@H](NC(=O)[C@H](CC(C)C)NC(=O)[C@H](Cc1ccccc1)NC(=O)[C@@H](NC(=O)[C@H](CCCNC(=N)N)NC(=O)[C@@H]1CCCN1C(=O)[C@H](CCC(N)=O)NC(=O)[C@H](CC(C)C)NC(=O)[C@@H](N)Cc1ccc(O)cc1)[C@@H](C)O)C(=O)O [Epitope M35] (H-YLQPRTFLL-OH; N-terminus and C-terminus assumed)	> 15	< 5	> 15	5 to 15	> 15	–	–	–	–	–	–
CC[C@H](C)[C@H](NC(=O)[C@@H](NC(=O)[C@@H](N)CO)[C@@H](C)CC)C(=O)N[C@@H](C)C(=O)N[C@@H](Cc1ccc(O)cc1)C(=O)N[C@H](C(=O)N[C@@H](CCSC)C(=O)N[C@@H](CO)C(=O)N[C@@H](CC(C)C)C(=O)O)[C@@H](C)O [Epitope M86] (H-SIIAYTMSL-OH; N-terminus and C-terminus assumed)	5 to 15	–	> 15	> 15	–	5 to 15	–	–	–	–	–
CC(C)[C@H](NC(=O)CNC(=O)[C@H](Cc1c[nH]cn1)NC(=O)[C@@H]1CCCN1C(=O)[C@H](C)NC(=O)[C@H](CO)NC(=O)[C@@H](N)CCC(N)=O)C(=O)N[C@H](C(=O)N[C@@H](Cc1ccccc1)C(=O)O)C(C)C [Epitope M69] (H-QSAPHGVVF-OH; N-terminus and C-terminus assumed)	> 15	–	–	> 15	–	> 15	> 15	> 15	–	–	–
CC(C)C[C@H](NC(=O)[C@H](CC(C)C)NC(=O)[C@H](Cc1ccccc1)NC(=O)[C@@H](NC(=O)[C@@H](NC(=O)[C@H](Cc1ccccc1)NC(=O)[C@H](C)NC(=O)[C@H](CC(C)C)NC(=O)[C@@H](N)Cc1ccccc1)C(C)C)C(C)C)C(=O)O [Epitope M76] (H-FLAFVVFLL-OH; N-terminus and C-terminus assumed)	–	5 to 15	5 to 15	> 15	< 5	–	–	–	–	–	–
CC[C@H](C)[C@H](NC(=O)[C@H](C)NC(=O)[C@H](C)NC(=O)[C@H](CC(N)=O)NC(=O)[C@H](CC(N)=O)NC(=O)[C@H](C)NC(=O)[C@@H]1CCCN1C(=O)[C@H](CC(N)=O)NC(=O)[C@H](CCCNC(=N)N)NC(=O)[C@@H](N)[C@@H](C)O)C(=O)O [Epitope M117] (H-TRNPANNAAI-OH; N-terminus and C-terminus assumed)	> 15	< 5	–	> 15	–	–	–	< 5	21	–	–
CC[C@H](C)[C@H](N)C(=O)N[C@H](C(=O)N[C@@H](CC(N)=O)C(=O)N[C@@H](CO)C(=O)N[C@H](C(=O)N[C@@H](CC(C)C)C(=O)N[C@@H](CC(C)C)C(=O)N[C@@H](Cc1ccccc1)C(=O)N[C@@H](CC(C)C)C(=O)O)C(C)C)C(C)C [Epitope M7] (H-IVNSVLLFL-OH; N-terminus and C-terminus assumed)	< 5	> 15	> 15	> 15	> 15	5 to 15	–	5 to 15	–	–	–
CSCC[C@H](NC(=O)[C@H](C)NC(=O)[C@@H](N)Cc1ccccc1)C(=O)N[C@@H](CCC(N)=O)C(=O)N[C@@H](CCSC)C(=O)N[C@@H](C)C(=O)N[C@@H](Cc1ccc(O)cc1)C(=O)N[C@@H](CCCNC(=N)N)C(=O)N[C@@H](Cc1ccccc1)C(=O)O [Epitope M63]	> 15	> 15	< 5	–	–	> 15	> 15	> 15	–	5 to 15	–
CC[C@H](C)[C@H](NC(=O)[C@@H](NC(=O)[C@H](CC(N)=O)NC(=O)[C@H](CCCNC(=N)N)NC(=O)[C@H](CCCCN)NC(=O)[C@@H](NC(=O)[C@H](Cc1ccc(O)cc1)NC(=O)[C@H](C)NC(=O)[C@@H](N)Cc1ccccc1)[C@@H](C)O)C(C)C)C(=O)O [Epitope M23] (H-FAYTKRNVI-OH; N-terminus and C-terminus assumed)	5 to 15	–	–	–	–	> 15	> 15	–	–	< 5	78.9
CC(C)C[C@H](NC(=O)[C@@H](NC(=O)[C@@H](NC(=O)CNC(=O)[C@H](CCC(N)=O)NC(=O)[C@@H]1CCCN1C(=O)[C@H](CC(C)C)NC(=O)[C@H](CCC(N)=O)NC(=O)[C@@H](N)CC(C)C)[C@@H](C)O)[C@@H](C)O)C(=O)O [Epitope M13] (H-LQLPQGTTL-OH; N-terminus and C-terminus assumed)	–	5 to 15	–	> 15	< 5	5 to 15	–	–	–	–	–
CSCC[C@H](NC(=O)[C@H](C)NC(=O)[C@@H]1CCCN1C(=O)[C@H](CC(=O)O)NC(=O)[C@H](C)NC(=O)[C@H](C)NC(=O)[C@H](Cc1ccc(O)cc1)NC(=O)[C@@H](NC(=O)[C@@H](N)CC(C)C)C(C)C)C(=O)O [Epitope M58] (H-LVYAADPAM-OH; N-terminus and C-terminus assumed)	> 15	> 15	< 5	–	–	> 15	> 15	–	–	5 to 15	–
CC[C@H](C)[C@H](NC(=O)[C@@H]1CCCN1C(=O)[C@H](CCSC)NC(=O)[C@H](CC(C)C)NC(=O)[C@H](CC(C)C)NC(=O)[C@H](CO)NC(=O)[C@H](Cc1ccc(O)cc1)NC(=O)[C@@H](N)Cc1ccc(O)cc1)C(=O)N[C@@H](CC(C)C)C(=O)O [Epitope M95]	5 to 15	> 15	–	5 to 15	–	–	–	> 15	–	–	–
CC[C@H](C)[C@H](NC(=O)[C@H](CC(N)=O)NC(=O)[C@H](CC(=O)O)NC(=O)[C@H](CO)NC(=O)[C@H](CO)NC(=O)[C@@H](N)CO)C(=O)N[C@@H](C)C(=O)N[C@@H](CC(C)C)C(=O)N[C@@H](CC(C)C)C(=O)O [Epitope M111] (H-SSSDNIALL-OH; N-terminus and C-terminus assumed)	> 15	> 15	–	> 15	–	< 5	–	5 to 15	30.9	–	47.1
CC[C@H](C)[C@H](N)C(=O)N[C@@H](C)C(=O)N[C@@H](CC(N)=O)C(=O)N[C@@H](CCC(N)=O)C(=O)N[C@@H](Cc1ccccc1)C(=O)N[C@@H](CC(N)=O)C(=O)N[C@@H](CO)C(=O)N[C@@H](C)C(=O)N[C@H](C(=O)O)[C@@H](C)CC [Epitope M37] (H-IANQFNSAI-OH; N-terminus and C-terminus assumed)	< 5	–	–	–	–	> 15	> 15	> 15	68.9	< 5	86.1
